From paper PMC10589313 (Nature Communications, 2023)
“And” between values parts separate entries of the source, which are not always exact repeats. Equal values may be shown once.

Tests used:
Format in all cases: cell-based
human H4R Q347A mutant = biological target: T1, human H4R Q347A mutant (Homo sapiens, UniProt Q9H3N8, Q347A); assay: TGFα shedding assay, H4R Q347A mutant
T1 construct: a mutant H4R (human, full-length, and untagged); expressed in transfected cells; host or cells: HEK293A
Protocol: (§1) The mutants were prepared using the primers listed in Supplementary Table 2. […] The chimeric Gαq/i1 subunit comprises the Gαq backbone and Gαi1-derived six-amino acid C-terminus and couples with Gi-coupled H4R but induces a Gq-dependent TGFα shedding response. After culturing for 1 day and incubating at 37 °C in a 5% CO2 incubator, the transfected cells were harvested by trypsinization, neutralized with Dulbecco’s modified Eagle’s medium containing 10% fetal calf serum (FCS) and penicillin–streptomycin, washed once with Hank’s balanced salt solution (HBSS) containing 5 mM of HEPES (pH 7.4), and resuspended in 6 mL of the HEPES-containing HBSS. The cell suspension was seeded into a 96-well plate at a volume of […] per well (typically, 48 wells per transfected cells) and incubated for 30 min in the CO2 incubator. Test compounds (10×, diluted in 0.01% BSA and 5 mM of HEPES-containing HBSS, […] volume) were added to duplicate wells and incubated for 1 h. After centrifugation, the conditioned medium ([…]) was transferred to an empty 96-well plate. AP reaction solution [10 mM of p-nitrophenylphosphate (p-NPP), 120 mM of Tris–HCl (pH 9.5), 40 mM of NaCl, and 10 mM of MgCl2] was dispensed into the cell culture plates and plates containing conditioned media ([…]). Absorbance was measured at 405 nm before and after a 1-h incubation period at 25 °C using a microplate reader (iMark™ Microplate Absorbance Reader; BioRad). Ligand-induced AP-TGFα release was calculated as previously described. The vehicle-treated AP-TGFα release signal was set as a baseline unless otherwise specified. AP-TGFα release signals were fitted with a four-parameter sigmoidal concentration-response curve, from which EC50 and Emax values were obtained, using GraphPad Prism 9 software (GraphPad Prism). Negative values of logarithmically transformed EC50 values (pEC50) were used to calculate the mean and standard error of independent experiments.
(§2) All functional study data were analyzed using Prism 9 (GraphPad) and are presented as mean ± standard error of the mean (SEM) of three independent experiments. Statistical analyses were performed using Prism 9 (GraphPad) with one-way analysis of variance followed by Dunnett’s post-hoc test. Values with p < 0.05 are considered statistically significant.

human H4R Y95A mutant = biological target: T2, human H4R Y95A mutant (Homo sapiens, UniProt Q9H3N8, Y95A); assay: TGFα shedding assay, H4R Y95A mutant
T2 construct: a mutant H4R (human, full-length, and untagged); expressed in transfected cells; host or cells: HEK293A
T2 sequence (Q9H3N8 whole entry Y95A): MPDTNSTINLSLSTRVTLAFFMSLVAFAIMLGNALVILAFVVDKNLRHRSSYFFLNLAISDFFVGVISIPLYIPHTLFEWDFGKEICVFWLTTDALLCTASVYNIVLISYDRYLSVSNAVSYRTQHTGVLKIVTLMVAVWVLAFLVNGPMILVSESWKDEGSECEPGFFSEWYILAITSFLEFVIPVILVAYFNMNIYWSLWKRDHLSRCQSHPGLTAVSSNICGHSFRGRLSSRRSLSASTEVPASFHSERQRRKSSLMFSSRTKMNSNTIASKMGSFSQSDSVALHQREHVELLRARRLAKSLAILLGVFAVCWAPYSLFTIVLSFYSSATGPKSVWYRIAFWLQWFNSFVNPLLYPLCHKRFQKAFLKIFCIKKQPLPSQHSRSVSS
Protocol: as §1
All functional study data were analyzed using Prism 9 (GraphPad) and are presented as mean ± standard error of the mean (SEM) of three independent experiments. […]

human H4R N147Y mutant = biological target: T3, human H4R N147Y mutant (Homo sapiens, UniProt Q9H3N8, N147Y); assay: TGFα shedding assay, H4R N147Y mutant; conditions: for EC50: EC50 (nM)
T3 construct: a mutant H4R (human, full-length, and untagged); expressed in transfected cells; host or cells: HEK293A
T3 sequence (Q9H3N8 whole entry N147Y): as the sequence (Q9H3N8 whole entry Y95A) above, with A95Y, N147Y counted along it
Protocol: as §1, §2

[1] = Imetit (M) -5 (log concentration), raw replicate values

T1 sequence (Q9H3N8 whole entry Q347A): as the sequence (Q9H3N8 whole entry Y95A) above, with A95Y, Q347A counted along it

In the case of `N=C(N)SCCc1cnc[nH]1` [Imetit, imetit], the EC50 (human H4R Q347A mutant; EC50 (nM), Q347A mutant) is reported as 12.7 nM, the “Shedding assay response, Q347A” value (human H4R Q347A mutant; [1]) is reported as 17.2563 and 18.9409 and 18.4053 and 16.608 and 19.8188 and 22.6245 and 22.4962 and 23.3465 and 23.6643 and the fold of change (human H4R Q347A mutant; Q347A mutant, EC50 relative to WT) is reported as 0.4 fold. The EC50 (human H4R Q347A mutant; pEC50 mean ± SEM, Q347A mutant) was 12.3 nM, the Emax (human H4R Q347A mutant; read-out: Emax (%) mean ± SEM) was 19.3 ± 1.1% and the EC50 (human H4R Y95A mutant) was > 10000 nM. For the same compound, the “Shedding assay response, Y95A” value (human H4R Y95A mutant; [1]) was 0.2008 and 4.141 and 6.475 and 5.892 and -1.081 and 3.761 and 1.333 and 3.151 and 12.3655, the EC50 (human H4R N147Y mutant; N147Y mutant) was 319 nM and the EC50 (human H4R N147Y mutant; N147Y, single experiments, source data Figure 4e-f) was 632 nM and 127 nM and 200 nM. For the same compound, the “Shedding assay response, N147Y” value (human H4R N147Y mutant; [1]) was 5.667 and 6.627 and 11.6194 and 11.6248 and 10.5662 and 9.653 and 14.7457 and 12.0475 and 16.0734, the fold of change (human H4R N147Y mutant; N147Y mutant, EC50 relative to WT) was 10.7 fold and the Emax (human H4R N147Y mutant; read-out: Emax (%) mean ± SEM) was 11.1 ± 1.47%.
